Reference: patent US12410229B2, “PTH mimetic peptide based on protein domain reconstruction and application thereof” (priority 2018, dated 2025)

How the values were obtained:
[1] = test system: Primary osteoblasts of mouse skulls; assay: Intermittent (4 h/48 h) PTH mimetic peptide stimulation, osteoblast differentiation (ALP, calcium nodules); format: cell-based
Experimental: Osteoblasts were isolated from the skulls of newborn mice and cultured in vitro. The cell at density of 1×10^5/well was inoculated in a 24-well culture plate. After 3 days, a 4 h/48 h intermittent PTH mimetic peptide stimulation experiment was started, which the PTH mimetic peptide was added to the culture system at the corresponding concentration (containing 10% serum+α-MEM Culture medium). After 4 hours, the culture solution was aspirated, the adherent cells were gently washed once with α-MEM medium, then 10% serum+α-MEM medium was added and continued culturing for 44 hours. Repeated this cycle. Concentration: MY-1 peptide 10^−6 M, PTH (1-34) peptide 10^−8 M, MY-3 peptide 10^−8 M.
Alkaline phosphatase staining was performed after 2 weeks, and calcium nodule staining was performed after 4 weeks (FIG. 1A, upper two rows of the holes). Alkaline phosphatase expression and calcium ion concentration of each well were quantitative detected (FIGS. 1B and 1C).
(§1) Primary osteoblasts (two rows of the holes in A) of mouse skulls were intermittently treated with PTH (1-34), MY-3 and MY-1. (within 48 hours, PTH peptide was added to the medium for 4 hours, removed, and cultured in the ordinary medium for 44 hours, then started all over again). At 2 weeks, alkaline phosphatase (ALP) staining (A) and quantification (B) wells were performed in the cell culture. 4 Weekly, calcium nodule staining (A) and calcium ion quantification (C) were performed in culture wells. Bone marrow cells in the femoral shaft bone marrow cavity (lower hole A) received the same treatment with three peptides mentioned above. Two weeks later, tartrate resistant acid phosphatase (TRAP) staining (A) and quantification (D) were performed. […] The same experiment was repeated three times, and same results were obtained. *P<0.05 vs control group (CON), #P<0.05 vs PTH (1-34).

[2] = test system: Bone marrow cells from the bone marrow cavity of 7-week-old mice; assay: Intermittent (4 h/48 h) PTH mimetic peptide stimulation, osteoclast formation (TRAP); format: cell-based, mouse
Experimental: Bone marrow cells from the bone marrow cavity of 7-week-old mice were extracted and cultured in 24-well plates at a density of 1×10^5/well. The 4 h/48 h intermittent PTH mimetic peptide stimulation experiment was carried out as described above. After 7 days, tartrate resistant acid phosphatase (TRAP) staining (bottom row of the holes in FIG. 1A) and quantification were performed (FIG. 1D).
as §1

[3] = test system: Primary osteoblasts of mouse skulls; assay: Continuous PTH mimetic peptide stimulation, osteoblast differentiation (ALP, calcium nodules); format: cell-based
Experimental: Osteoblasts were isolated from the skulls of newborn mice and cultured in vitro. The cell at density of 1×10^5/well was inoculated in the 24-well culture plate. After 3 days, the continuous PTH mimetic peptide stimulation experiment was started. The PTH mimetic peptide was added to the culture system (containing 10% serum+α-MEM medium) at the corresponding concentration. After 48 hours, when the medium is changed, the PTH mimetic peptide was added again, meaning the PTH mimetic peptide is always in the culture solution. Concentration: MY-1 peptide 10^−6 M, PTH (1-34) peptide 10^−8 M, MY-3 peptide 10^−8 M. Alkaline phosphatase staining was performed 2 weeks later, and calcium nodule staining was performed 4 weeks later (FIG. 2A, upper two rows of the holes). The expression of alkaline phosphatase and the concentration of calcium ion in each well were quantitatively detected (FIGS. 2B and 2C).
(§2) Primary osteoblasts (two rows of the holes in A) of mouse skulls were continuously treated with PTH (1-34), MY-3 and MY-1 (within the 48-hour culture cycles, PTH peptide stayed in the culture medium at all times). After 2 weeks, alkaline phosphatase (ALP) staining (A) and quantification (B) wells were performed in the cell culture. After 4 Weeks, calcium nodule staining (A) and calcium ion quantification (C) were performed in culture wells. Bone marrow cells in the femoral shaft bone marrow cavity (lower hole A) received the same treatment with three peptides as described above. Two weeks later, tartrate resistant acid phosphatase (TRAP) staining (A) and quantification (D) were performed. […] The same experiment was repeated three times and same results were obtained. […], #P<0.05 vs PTH (1-34).

[4] = test system: Bone marrow cells from the bone marrow cavity of femur in 7-week-old mice; assay: Continuous PTH mimetic peptide stimulation, osteoclast formation (TRAP); format: cell-based, mouse
Experimental: Bone marrow cells from the bone marrow cavity of femur in 7-week-old mice were extracted and seeded in 24-well plates at a density of 1×10^5/well. The 48 h continuous PTH mimetic peptide stimulation experiment was carried out as described above. After 7 days, tartrate resistant acid phosphatase (TRAP) staining (bottom row of holes in FIG. 2A) and quantification were performed (FIG. 2D).
as §2

[5] = test system: Primary mouse skull osteoblasts; assay: Realtime PCR gene expression after PTH peptide stimulation, osteoblasts; format: cell-based; conditions: intermittent stimulation
Experimental: (§3) Primary mouse skull osteoblasts (FIGS. 3A and 3B) and mouse bone marrow cells (FIGS. 3C and 3D) were cultured in cell culture plates. When the cells completely cover the bottom of the culture well, changed to a medium containing 1% fetal bovine serum, added with different concentrations of PTH mimetic peptide (the concentration is the same as above). Cells receiving intermittent stimulation (FIG. 3A and FIG. 3C) were treated with PTH peptides for 4 hours, and normal medium for 44 hours. Such 48-hour cycle repeated three times.
(§4) Cell RNA was extracted 4 hours after the last PTH peptide stimulation for Realtime PCR detection. Cells receiving continuous stimulation (FIG. 3B and FIG. 3D) were cultured in the medium with PTH peptides, and the culture medium containing peptides was changed 48 hours later. Repeated such cycle three times. After 48 hours of the last PTH peptide stimulation, cellular RNA was extracted for Realtime PCR detection. As shown in the figure, the average value and standard deviation of an independent experiment (triple holes) were obtained. The same experiment was repeated three times and same results were obtained. *P<0.05 vs control group (CON), #P<0.05 vs PTH (1-34).

[6] = test system: mouse bone marrow cells; assay: Realtime PCR gene expression after PTH peptide stimulation, bone marrow cells; format: cell-based; conditions: continuous stimulation of bone marrow cells (FIG. 3D)
Experimental: as §3, §4

[7] = test system: C57BL female mice; assay: Ovariectomy osteoporosis model, tibia histology (paraffin section); format: in vivo, mouse; conditions: OVX mice, 2 and 4 weeks, compared with the control group; MY-1 400, PTH (1-34) and MY-3 40 μg/kg/day
Experimental: An osteoporosis model was constructed by removing the ovaries of 7-week-old C57BL female mice. Mice were subcutaneously injected with PTH (3-34) (400 μg/kg/day), MY-1 peptide (400 μg/kg/day), PTH (1-34) (40 μg/kg/day) and MY-3 peptide (40 μg/kg/day) daily (5 days a week), respectively. Mice were sacrificed at 2 and 4 weeks and their tibias were separated, then the cancellous bone mass (BV/TV) and bone mineral density (BMD) of the tibias were measured by micro-CT (FIG. 4).
MY-3 has a stronger anti-bone loss effect than PTH (1-34)-through histological studies. The preparation of the osteoporosis animal model and the administration method of the PTH mimetic peptide was the same as in Example 4. After 2 and 4 weeks, the tibias of experimental mice were removed, decalcified, and prepared for paraffin section. At last, the osteoclast was stained.

[8] = clinical applications, in general; cited from earlier work

Structure (SMILES): CC[C@H](C)[C@H](NC(=O)[C@H](CCC(=O)O)NC(=O)[C@H](CO)NC(=O)[C@@H](NC(=O)[C@@H](N)CO)C(C)C)C(=O)N[C@@H](CCC(N)=O)C(=O)N[C@@H](CC(C)C)C(=O)N[C@@H](CCSC)C(=O)N[C@@H](Cc1cnc[nH]1)C(=O)N[C@@H](CC(N)=O)C(=O)N[C@@H](CC(C)C)C(=O)NCC(=O)N[C@@H](CCCCN)C(=O)N[C@@H](Cc1cnc[nH]1)C(=O)N[C@@H](CC(C)C)C(=O)N[C@@H](CC(N)=O)C(=O)N[C@@H](CO)C(=O)N[C@@H](CCSC)C(=O)N[C@@H](CCC(=O)O)C(=O)N[C@@H](CCCN=C(N)N)C(=O)N[C@H](C(=O)N[C@@H](CCC(=O)O)C(=O)N[C@@H](Cc1c[nH]c2ccccc12)C(=O)N[C@@H](CC(C)C)C(=O)N[C@@H](CCCN=C(N)N)C(=O)N[C@@H](CCCCN)C(=O)N[C@@H](CCCCN)C(=O)N[C@@H](CC(C)C)C(=O)N[C@@H](CCC(N)=O)C(=O)N[C@@H](CC(=O)O)C(=O)N[C@H](C(=O)N[C@@H](Cc1cnc[nH]1)C(=O)N[C@@H](CC(N)=O)C(=O)N[C@@H](Cc1ccccc1)C(=O)O)C(C)C)C(C)C [PTH (1-34), Teriparatide, reference compound]
- ALP ([1]; intermittent 4 h/48 h stimulation, 2 weeks, MY-1 10^−6 M, PTH (1-34) 10^−8 M, MY-3 10^−8 M, mean ± SD): 4.91 ± 0.55 U/g protein
- Calcium ([1]; intermittent 4 h/48 h stimulation, 4 weeks, MY-1 10^−6 M, PTH (1-34) 10^−8 M, MY-3 10^−8 M, mean ± SD): 0.49 ± .06 mmole/g protein
- osteogenic differentiation of osteoblasts (in words) ([1]; intermittent stimulation): can promote osteogenic differentiation of osteoblasts
- TRAP ([2]; intermittent 4 h/48 h stimulation, after 7 days, MY-1 10^−6 M, PTH (1-34) 10^−8 M, MY-3 10^−8 M, mean ± SD): 9.61 ± 1.78 U/g protein
- osteoclast formation (in words) ([2]; intermittent stimulation, TRAP staining): the same effect of promoting osteoclast formation
- osteogenic differentiation of osteoblasts (in words) [3]: inhibit the differentiation of osteoblasts
- ALP ([3]; 2 weeks, MY-1 10^−6 M, PTH (1-34) 10^−8 M, MY-3 10^−8 M, mean ± SD): 1.02 ± 0.28 U/g protein
- Calcium ([3]; 4 weeks, MY-1 10^−6 M, PTH (1-34) 10^−8 M, MY-3 10^−8 M, mean ± SD): 0.12 ± 0.03 mmole/g protein
- osteoclast formation (in words) ([4]; TRAP staining): the same effect on promoting osteoclast formation
- TRAP ([4]; after 7 days, MY-1 10^−6 M, PTH (1-34) 10^−8 M, MY-3 10^−8 M, mean ± SD): 11.80 ± 1.99 U/g protein
- expression of osteogenic marker gene ALP and OC (in words) [5]: promote the expression of osteogenic marker gene ALP and OC
- RANKL expression (in words) [6]: significantly promoted RANKL expression
- expression of ALP and OC (in words) [6]: inhibited the expression of ALP and OC
- number of trabecular bones (in words) [7]: increased
- reduction of the incidence of vertebral fractures [8]: about 76%
